In brackets after ≈: the same amount, converted by molar mass. Where a SMILES comes first, the peptide text is derived from it. Bridges are numbered along the chain shown (N, C = ends). [ ]: non-standard residue; d: D form. The star is where a group is joined. Decanoyl = CCCCCCCCCC(=O)*; Octanoyl = CCCCCCCC(=O)*; Dab = NCC[C@H](N)C(=O)O; Abu = CC[C@H](N)C(=O)O
Assays:
E. coli CCUG 41421 = test system: E. coli CCUG 41421
Procedure: Polymyxin B sulfate (Sigma-Aldrich, St. Louis, Mo., USA) was used as a control. […] The bacterial test strains originated from ATCC (10 strains), CCUG (11 strains), and NCTC (3 strains). Fourteen (14) strains (the F-strains) were purchased from Mobidiag Ltd., Helsinki, Finland.
The inocula were prepared by adjusting the bacterial suspensions to a density equivalent to OD546 nm˜0.3 (˜10^8 CFU/ml˜0.5 McFarland) the yeast suspension to a density equivalent to OD546 nm˜0.75 (˜2×10^7 CFU/ml)._The suspensions were diluted to 10^7 CFU/ml. The plates were inoculated by using a Denley Multipoint Inoculator, 1 μl per spot corresponding to approx. 10^4 CFU/spot. Plates were incubated for 16-20 hours at 35° C.

E. coli strains = format: cell-based, Escherichia coli
Procedure: Polymyxin B sulfate (Sigma-Aldrich, St. Louis, Mo., USA) was used as a control. […] Fourteen (14) strains (the F-strains) were purchased from Mobidiag Ltd., Helsinki, Finland. Besides bacteria, the MIC was also determined for the yeast Candida albicans (ATCC 28366 from ATCC). The inocula were prepared by adjusting the bacterial suspensions to a density equivalent to OD546 nm˜0.3 (˜10^8 CFU/ml˜0.5 McFarland) the yeast suspension to a density equivalent to OD546 nm˜0.75 (˜2×10^7 CFU/ml)._The suspensions were diluted to 10^7 CFU/ml. The plates were inoculated by using a Denley Multipoint Inoculator, 1 μl per spot corresponding to approx. 10^4 CFU/spot. Plates were incubated for 16-20 hours at 35° C. […] Both agents had good activity also against other polymyxin-susceptible strains of Enterobacteriaceae. […] S. aureus and C. albicans were resistant to the NAB peptides.

in vivo [1] = details: male, Sprague-Dawley, rat, iv, 1 mg/kg
Procedure: Four rats (Sprague-Dawley, male) were studied.
The samples were analyzed using liquid chromatography and mass spectrometry with electrospray ionization interface (LC/electrospray ionization MS).

K. pneumoniae ATCC13883 [2] = assay: Growth inhibition around wells on LB agar plates; format: cell-based, Klebsiella pneumoniae
Procedure: (§1) From an overnight-grown culture of IH3080 on LB agar, a suspension of approx. 10^8 cells/ml was prepared in 0.9% NaCl. Aliquots of this suspension were then pipetted on the agar plates and the plates were gently shaken to spread the suspension evenly on the entire surface of the plate. Thereafter, the unabsorbed part of the suspension was removed by using a Pasteur pipette. After the surface had dried, small wells (diameter, 2 mm) were drilled on the plates (five wells per plate) by using a sterile sharp-edged narrow metal tube, single-use pipette tip, and vacuum suction. An alternative method used a swab to spread the inoculum. Samples (4 μl and 10 μl) of the peptide solution in 0.9% NaCl (at concentrations of 1 μg/ml and 0.1 μg/ml) were then pipetted to the wells and the sample fluids were allowed to absorb. Controls included 0.9% NaCl solution without the compound to be tested. The plates were then incubated for 18 h at 37° C. whereafter the diameters of growth inhibition zones around each well were measured; the diameter of the well itself was not reduced. Finally, the diameters were converted to surface areas of growth inhibition (in square mm).
(§2) The susceptibility of eleven Gram-negative bacterial strains (nine different species) to NAB734 and polymyxin B was compared by using the susceptibility determination method described in Example 2. The strains included those belonging to the species of Serratia marcescens and Proteus mirabilis, both species generally known to be resistant to polymyxin. Furthermore, the susceptibility determination was also performed by using the Gram-positive bacterium, Staphylococcus aureus, also generally known to be polymyxin-resistant. Ten of the strains originated from ATCC (American Type Culture Collection, Manassas, Va., U.S.A.), and one from CCUG (Culture Collection of University of Gothenburg, Sweden). The source of E. coli IH3080 has been described in Example 2. Polymyxin B sulfate was from Sigma-Aldrich (St. Louis, Mo., USA).

K. pneumoniae CCUG45421 = assay: Growth inhibition around wells on LB agar plates; format: cell-based, Klebsiella pneumoniae
Procedure: as §1, §2

S. marcescens ATCC8100 = assay: Growth inhibition around wells on LB agar plates; format: cell-based, Serratia marcescens
Procedure: as §1, §2

E. coli IH3080 = assay: E-test MIC with or without NAB7061 (4 μg/ml), Mueller-Hinton agar; format: cell-based, Escherichia coli
Method in brief: (§3)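 Read-out: MIC taken from the E-strip scale. Testing followed the manufacturer's instructions for strip use.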

E. coli ATCC25922 = test system: E. coli ATCC25922
Method in brief: as §3

K. pneumoniae ATCC13883 [3] = test system: K. pneumoniae ATCC13883
Method in brief: as §3

[4] = Two-week intravenous toxicity study in young rats; format: in vivo; details: for lowest dose that negatively influenced the body weight gain: intravenously twice a day for two weeks
Procedure: Toxicity in young rats (weighing approx. 150 g in the beginning of the study) was determined by administering doses (1, 2, 4, 8, 16, and 32 mg/kg per day) of NAB7061 as well as the control compound polymyxin B intravenously twice (2) a day for two weeks. A group of ten (10) rats was studied for each dosage regimen. Clinical observations were made daily, the body weight measured twice weekly, and the food consumption twice weekly. In the end of week 2, all animals were sacrificed.
Histopathology of kidneys was performed for each animals and histopathology of all tissues was performed in three high-dose groups receiving NAB7061.

in vivo [5] = details: male, Sprague-Dawley, rat, iv, 1 mg/kg; remark: listed apart in the source
Procedure: Each rat (n=5, Sprague-Dawley, male) was anaesthetized using isoflurane, and a polyethylene cannula was inserted into the jugular vein. Each rat was placed into a metabolic cage and allowed to recover from the procedure overnight. […] When collecting samples, the first 100 μl of blood was withdrawn and kept in the syringe. After collecting the actual sample with another syringe, the content of the first syringe was returned to the rat together with 400 μl of heparinized saline. Blood samples were centrifuged to obtain plasma. […] Plasma and urine samples were stored at −80° C.
To a 100-μl sample, 100 μl of acetonitrile was added, the mixture was vortex-mixed for 1 min, and centrifuged at 10,000 g for 10 min. The supernatant was transferred to an SPE C18 cartridge (Sep-Pak, Waters, Mass. USA) for derivatization with 9-fluorenylmethyl chloroformate. […] The chromatography employed the HPLC C18 column (50×4.6 mm), the mobile phase of acetonitrile/tetrahydrofuran/water (60:15:30, v/v), the flow rate of 1.0 ml/min, and the detection at an excitation wavelength of 260 nm and an emission wavelength of 315 nm.

CCCCCCCCCC(=O)N[C@H](C(=O)N[C@H](CO)C(=O)N[C@H]1CCNC(=O)[C@H]([C@@H](C)O)NC(=O)[C@H](CCN)NC(=O)[C@H](CCN)NC(=O)[C@H](CC(C)C)NC(=O)[C@@H](Cc2ccccc2)NC(=O)[C@H](CCN)NC1=O)[C@@H](C)O [NAB 740, DA-Thr-DSer-cy[Dab-Dab-DPhe-Leu-Dab-Dab-Thr-]] (Decanoyl-T[dS][Dab][Dab][dF]L[Dab][Dab]T; lactam 3-C)
MIC (E. coli CCUG 41421): 2 µg/mL (≈ 1.81 µM) | MIC values, range for E. coli strains (E. coli strains): 1 to 2 µg/mL

CCCCCCCC(=O)N[C@H](C(=O)N[C@H](CO)C(=O)N[C@H]1CCNC(=O)[C@H]([C@@H](C)O)NC(=O)[C@H](CCN)NC(=O)[C@H](CCN)NC(=O)[C@H](CC(C)C)NC(=O)[C@@H](Cc2ccccc2)NC(=O)[C@H](CCN)NC1=O)[C@@H](C)O [NAB 739, OA-Thr-DSer-cy[Dab-Dab-DPhe-Leu-Dab-Dab-Thr-]] (Octanoyl-T[dS][Dab][Dab][dF]L[Dab][Dab]T; lactam 3-C)
MIC values, range for E. coli strains (E. coli strains): 0.5 to 1 µg/mL | CL renal (in vivo [1]; plasma and urine): 0.53 ± 0.3 mL/min/kg | Vd (in vivo [1]; plasma): 0.222 ± 0.0205 L/kg | clearance (in vivo [1]; plasma): 2.63 ± 0.54 mL/min/kg | half-life (in vivo [1]; plasma): 1.15 ± 0.365 h | dose excreted (in vivo [1]; urine): 19.4 ± 7.38%

Polymyxin B [reference compound]
growth inhibition around a well (K. pneumoniae ATCC13883 [2]; 4 μg): 79 square millimeters | growth inhibition around a well (K. pneumoniae ATCC13883 [2]; 10 μg): 113 square millimeters | growth inhibition around a well (K. pneumoniae CCUG45421; 4 μg): 95 square millimeters | growth inhibition around a well (K. pneumoniae CCUG45421; 10 μg): 133 square millimeters | growth inhibition around a well (S. marcescens ATCC8100; 4 μg): 0 square millimeters | growth inhibition around a well (S. marcescens ATCC8100; 10 μg): 0 square millimeters | Sensitization factor to antibiotic (MIC without / with 4 μg/ml of NAB 7061) (E. coli IH3080): 2 | Sensitization factor to antibiotic (MIC without / with 4 μg/ml of NAB 7061) (E. coli ATCC25922; E. coli ATCC25922): 5 | Sensitization factor to antibiotic (MIC without / with 4 μg/ml of NAB 7061) (K. pneumoniae ATCC13883 [3]; K. pneumoniae ATCC13883): 1 | lowest dose that negatively influenced the body weight gain ([4]; rats): 1 mg/kg per day

CCCCCCCC(=O)N[C@H](C(=O)N[C@@H](CC)C(=O)N[C@H]1CCNC(=O)[C@H]([C@@H](C)O)NC(=O)[C@H](CCN)NC(=O)[C@H](CCN)NC(=O)[C@H](CC(C)C)NC(=O)[C@@H](Cc2ccccc2)NC(=O)[C@H](CCN)NC1=O)[C@@H](C)O [NAB 7061, OA-Thr-Abu-cy[Dab-Dab-DPhe-Leu-Dab-Dab-Thr-]] (Octanoyl-T[Abu][Dab][Dab][dF]L[Dab][Dab]T; lactam 3-C)
MIC of NAB7061 (E. coli ATCC25922; ATCC 25922): 16 µg/mL | MIC of NAB7061 (K. pneumoniae ATCC13883 [3]; ATCC 13883): > 16 µg/mL | rise of blood urea nitrogen (BUN) versus control or low dose group ([4]; 16 mg/kg per day, end of the study): no such a rise was found | lowest dose that negatively influenced the body weight gain ([4]; rats): 8 mg/kg per day | general pathology and histopathology of organs and kidneys ([4]; rats, two weeks): No NAB7061-related pathological findings were found | CL renal (in vivo [5]; plasma and urine): 0.28 ± 0.16 mL/min/kg | Vd (in vivo [5]; plasma): 0.339 ± 0.096 L/kg | clearance (in vivo [5]; plasma): 3.84 ± 0.75 mL/min/kg | half-life (in vivo [5]; plasma): 1.1 ± 0.205 h | dose excreted (in vivo [5]; urine): 7.16 ± 3.7%

From patent publication US8329645B2, “Polymyxin derivatives and uses thereof” (priority 2008, dated 2012)
